pEC50: −log10 of the molar value.

The values that follow come from patent US7601850B2, “Phenyl-thiophene type vitamin D receptor modulators” (Eli Lilly and Company, priority 2002, dated 2009).

For one assay, the system named is rat osteocalcin promoter. The assay can be described thus: OCN (osteocalcin) promoter assay in RG-15 (ROS 17/2.8) cells.
Details: not given
It is filed as cell-based. Here is the method: 4. The OCN Promoter test is described in the “Assay” section of the Description, infra.
3. The OCN (Osteocalcin) Promoter Assay
The OCN Promoter Assay is an indicator and marker for osteoporosis. Desired assay results are EC50 less than or equal to 325 nM. Preferred assay results are less than 50 nM.
(3) Materials and Method for The OCN Promoter Assay:
The activation of osteocalcin by VDR ligands was evaluated in a rat osteoblast-like cell line RG-15 (ROS 17/2.8) stably expressing rat osteocalcin promoter fused with luciferase reporter gene. The stable cell lines were established as reported before (Activation of Osteocalcin Transcription involves interaction of protein kinase A- and Protein kinase C-dependent pathways. Boguslawski, G., Hale, L. V., Yu, X.-P., Miles, R. R., Onyia, J. E., Santerre R. F., Chandrasekhar, S. J Biol. Chem. 275, 999-1006, 2000). Confluent RG-15 cells maintained in DMEM/F-12 medium (3:1) containing 5% FBS, 300 µg/ml G418 and at 37° C. under 5% CO2/95% air atmosphere were trypsinized (0.25% trypsin) and plated into white opaque 96-well cell culture plates (25000 cells/well). After 24 hr, cells (in DMEM/F-12 medium+2% FBS) were treated with various concentrations of compounds, dissolved in DMSO. The final DMSO concentration remained at 0.01% (v/v). After 48 hr treatment, the medium was removed, cells were lysed with 50 µl of lysis buffer (From Luciferase reporter assay system, Roche Diagnostics, Indianapolis, Ind.) and assayed for luciferase activity using the Luciferase Reporter Gene Assay kit from Boehringer Mannheim as per manufacturer's specifications.
What is called pEC50 is the negative decadic logarithm of the EC50, by convention in mol/L. Turning to `CCC(CC)(c1ccc(OCC(O)C(C)(C)C)c(C)c1)c1cc(C)c(C(=O)Nc2nnn[nH]2)s1` (single isomer, unassigned) [Ex. 37, 3′-[4-(2-hydroxy-3,3-dimethylbutoxy)-3-methylphenyl]-3′-[5-(tetrazol-5-yl-aminocarbonyl)-4-methylthiophen-2-yl]pentane], the pEC50 was 6.62.
The same measure, in the same setting: the value for `CCC(CC)(c1ccc(OCC(O)C(C)(C)C)c(C)c1)c1cc(C)c(C(=O)NCCS(C)(=O)=O)s1` (single isomer, unassigned) [Ex. 40, 5-[1-ethyl-1-[4-(2-hydroxy-3,3-dimethyl-butoxy)-3-methylphenyl]propyl]-3-methylthiophene-2-carboxylic acid (2-methylsulfonyl-ethyl) amide] was 6.21.
The same measure, in the same setting: the figure for `CCC(CC)(c1ccc(OCC(O)C(C)(C)C)c(C)c1)c1cc(C)c(C(=O)N[C@@H](C)C(=O)OC)s1` (single isomer, unassigned) [Ex. 54, L-2-[(5-{1-Ethyl-1-[4-(2-hydroxy-3,3-dimethyl-butoxy)-3-methyl-phenyl]-propyl}-3-methyl-thiophene-2-carbonyl)amino]propionic acid methyl ester] is 7.56.
Same read-out and setting: the figure for `CCC(CC)(c1ccc(OCC(O)C(C)(C)C)c(C)c1)c1cc(C)c(C(=O)N[C@H](C)C(=O)OC)s1` (single isomer, unassigned) [Ex. 56, D-2-[(5-{1-Ethyl-1-[4-(2-hydroxy-3,3-dimethyl-butoxy)-3-methyl-phenyl]-propyl}-3-methyl-thiophene-2-carbonyl)-amino]-propionic acid methyl ester] is 6.78; for `CCC(CC)(c1ccc(OCC(O)C(C)(C)C)c(C)c1)c1cc(C)c(C(=O)N[C@@H](C)C(=O)OC)s1` (single isomer, unassigned) [Ex. 64, L-2-[(5-{1-Ethyl-1-[4-(2-hydroxy-3,3-dimethyl-butoxy)-3-methyl-phenyl]-propyl}-3-methyl-thiophene-2-carbonyl)-amino]-propionic acid methyl ester] it is 8.39; for `CCC(CC)(c1ccc(OCC(O)C(C)(C)C)c(C)c1)c1cc(C)c(C(=O)NC(C)(C)C(=O)OC)s1` (single isomer, unassigned) [Ex. 70, 2-[(5-{1-Ethyl-1-[4-(2-hydroxy-3,3-dimethyl-butoxy)-3-methyl-phenyl]-propyl}-3-methyl-thiophene-2-carbonyl)-amino]-2-methyl-propionic acid methyl ester] it is 7.59.
In the case of `CCC(CC)(c1ccc(OCC(O)C(C)(C)C)c(C)c1)c1cc(C)c(C(=O)N2CCC[C@H]2C(=O)OC)s1` (single isomer, unassigned) [Ex. 72, L-1-(5-{1-Ethyl-1-[4-(2-hydroxy-3,3-dimethyl-butoxy)-3-methyl-phenyl]-propyl}-3-methyl-thiophene-2-carbonyl)pyrrolidine-2-carboxylic acid methyl ester], the pEC50 was 6.66.
Consider `CCC(CC)(c1ccc(OCC(O)C(C)(C)C)c(C)c1)c1cc(C)c(C(=O)N2CCC[C@H]2C(=O)OC)s1` (single isomer, unassigned) [Ex. 74, L-1-(5-{1-Ethyl-1-[4-(2-hydroxy-3,3-dimethyl-butoxy)-3-methyl-phenyl]-propyl}-3-methyl-thiophene-2-carbonyl)-pyrrolidine-2-carboxylic acid methyl ester], for which the pEC50 was 6.32.
Same read-out and setting: the figure for `CCC(CC)(c1ccc(OCC(O)C(C)(C)C)c(C)c1)c1cc(C)c(C(=O)NC(C)(C)C(=O)OC)s1` (single isomer, unassigned) [Ex. 76, 2-[(5-{1-Ethyl-1-[4-(2-hydroxy-3,3-dimethyl-butoxy)-3-methyl-phenyl]-propyl}-3-methyl-thiophene-2-carbonyl)-amino]-2-methyl-propionic acid methyl ester] is 7.24; for `CCC(CC)(c1ccc(OCC(C)(O)C(C)(C)C)c(C)c1)c1ccc(C(=O)O)s1` (single isomer, unassigned) [Ex. 105, 3′-[4-(2-hydroxy-2,3,3-trimethylbutoxy)-3-methylphenyl]-3′-[5-carboxy-thiophen-2-yl]pentane] it is 6.13.
Same read-out and setting: the figure for `CCCc1cc(C(CC)(CC)c2ccc(C(=O)O)s2)ccc1OCC(C)(O)C(C)(C)C` (single isomer, unassigned) [Ex. 112, 3′-[4-(2-hydroxy-2,3,3-trimethylbutoxy)-3-n-propylphenyl]-3′-[5-carboxy-thiophen-2-yl]pentane] is 8.30.

Still in this assay, the particulars now being: Rattus norvegicus.
As for `CCC(CC)(c1ccc(C(=O)NCC(=O)OC)c(C)c1)c1cc(C)c(CCC(O)C(C)(C)C)s1` (single isomer, unassigned) [Ex. 25A], the negative-log EC50 (pEC50) is 8.00.
Still for that read-out and setting: the value for `CCC(CC)(c1ccc(C(=O)NCC(=O)O)c(C)c1)c1cc(C)c(CCC(O)C(C)(C)C)s1` (single isomer, unassigned) [Ex. 27] was 7.31; that for `CCOC(=O)CCc1ccc(C(CC)(CC)c2cc(C)c(CCC(O)C(C)(C)C)s2)cc1C` (single isomer, unassigned) [Ex. 28] was 9.12.
The same measure, in the same setting: the figure for `CCC(CC)(c1ccc(CCC(=O)O)c(C)c1)c1cc(C)c(CCC(O)C(C)(C)C)s1` (single isomer, unassigned) [Ex. 30A] is 7.95.
On the same count and under the same terms, the figure for `CCC(CC)(c1ccc(OCC(O)C(C)(C)C)c(C)c1)c1cc(C)c(C(=O)N[C@@H](CC(=O)OC)C(=O)OC)s1` (single isomer, unassigned) [Ex. 58, L-2-[(5-{1-ethyl-1-[4-(2-hydroxy-3,3-dimethyl-butoxy)-3-methyl-phenyl]-propyl}-3-methyl-thiophene-2-carbonyl)-amino]-succinic acid dimethyl ester] is 6.56; for `CCC(CC)(c1ccc(OCC(O)C(C)(C)C)c(C)c1)c1cc(C)c(C(=O)N2CCC[C@H]2C(=O)O)s1` (single isomer, unassigned) [Ex. 73, L-1-(5-{1-Ethyl-1-[4-(2-hydroxy-3,3-dimethyl-butoxy)-3-methyl-phenyl]-propyl}-3-methyl-thiophene-2-carbonyl)pyrrolidine-2-carboxylic acid] it is 6.58; for `CCC(CC)(c1ccc(OCC(O)C(C)(C)C)c(C)c1)c1cc(C)c(C(=O)N(C)CC(=O)O)s1` (single isomer, unassigned) [Ex. 122, N-methyl-2-[(5-{1-ethyl-1-[4-(2-hydroxy-3,3-dimethyl-butoxy)-3-methyl-phenyl]-propyl}-3-methyl-thiophene-2-carbonyl)-methylamino]-acetic acid] it is 7.17.
Turning to `CCC(CC)(c1ccc(OCC(O)C(C)(C)C)c(C)c1)c1cc(C)c(CO)s1` (single isomer, unassigned) [Ex. 126], the pEC50 was 6.95.
`CCC(CC)(c1ccc(OCC(O)C(C)(C)C)c(C)c1)c1cc(C)c(-c2n[nH]c(=O)o2)s1` (single isomer, unassigned) [Ex. 171]: the pEC50 is 7.03.
In the case of `Cc1cc(C2(c3ccc(OCC(=O)C(C)(C)C)c(C)c3)CCCCC2)ccc1OCC(=O)C(C)(C)C` [CC, 1-(4-{1-[4-(3,3-Dimethyl-2-oxo-butoxy)-3-methyl-phenyl]-cyclohexyl}-2-methyl-phenoxy)-3,3-dimethyl-butan-2-one, reference compound], the pEC50 is below 6.00.
The same measure, in the same setting: the figure for `CCC(CC)(c1ccc(OCC(=O)C(C)(C)C)c(C)c1)c1cc(C)c(C(=O)OC)s1` [Ex. 1] is 6.85.
Same read-out and setting: the value for `CCC(CC)(c1ccc(OCS(C)(=O)=O)c(C)c1)c1cc(C)c(CCC(=O)C(C)(C)C)s1` [Ex. 13] was 6.50; that for `CCC(CC)(c1ccc(OCS(C)(=O)=O)c(C)c1)c1cc(C)c(CC[C@@H](O)C(C)(C)C)s1` [Ex. 14] was 7.33.
For `CCC(CC)(c1ccc(C(=O)OC)c(C)c1)c1cc(C)c(CCC(=O)C(C)(C)C)s1` [Ex. 20], the pEC50 is 6.06.
On the same count and under the same terms, the figure for `CCC(CC)(c1ccc(C(=O)OC)c(C)c1)c1cc(C)c(CCC(O)C(C)(C)C)s1` (centres unmarked) [Ex. 21] is 6.85.
Still for that read-out and setting: the figure for `CCC(CC)(c1ccc(C(=O)NCC(=O)OC)c(C)c1)c1cc(C)c(CCC(O)C(C)(C)C)s1` (centres unmarked) [Ex. 24] is 8.33; for `CCC(CC)(c1ccc(C(=O)NCC(=O)O)c(C)c1)c1cc(C)c(CCC(O)C(C)(C)C)s1` (centres unmarked) [Ex. 26] it is 8.10.
On the same count and under the same terms, the value for `CCC(CC)(c1ccc(OCC(=O)OC)c(C)c1)c1cc(C)c(CCC(O)C(C)(C)C)s1` (centres unmarked) [Ex. 31] was 8.11; that for `CCC(CC)(c1ccc(OCC(=O)O)c(C)c1)c1cc(C)c(CCC(O)C(C)(C)C)s1` (centres unmarked) [Ex. 32] was 8.03; that for `CCC(CC)(c1ccc(OCC(O)C(C)(C)C)c(C)c1)c1cc(C)c(C(=O)NCCS(C)(=O)=O)s1` (centres unmarked) [Ex. 38, 5-[1-ethyl-1-[4-(2-hydroxy-3,3-dimethyl-butoxy)-3-methylphenyl]propyl]-3-methylthiophene-2-carboxylic acid (2-methylsulfonyl-ethyl) amide] was 6.42.
Turning to `CCC(CC)(c1ccc(OCC(=O)C(C)(C)C)c(C)c1)c1cc(C)c(C(=O)NCCS(C)(=O)=O)s1` [Ex. 41, 5-{1-[4-(3,3-Dimethyl-2-oxo-butyoxy)-3-methyl-phenyl]-1-ethyl-propyl}-3-methyl-thiophene-2-carbolic acid (2-methanesulfonyl-ethyl]-amide], the pEC50 is 6.52.
